Laboratory results: patent US9232796B2, “Herbicidal compositions comprising 4-amino-3-chloro-5-fluoro-6-(4-chloro-2-fluoro-3-methoxyphenyl) pyridine-2-carboxylic acid or a derivative thereof and acetyl-CoA carboxylase (ACCase) inhibitors” (DOW AGROSCIENCES LLC, priority 2012, dated 2016)

Tests used:
[1] = test system: ECHCG; experiment: Example I postemergence foliar-applied, greenhouse, direct seeded rice weeds; format: in vivo, Echinochloa crusgalli (L.) Beauv.
Text: (§1) Seeds or nutlets of the desired test plant species were planted in a soil matrix prepared by mixing a loam or sandy loam soil (e.g., 28.6 percent silt, 18.8 percent clay, and 52.6 percent sand, with a pH of about 5.8 and an organic matter content of about 1.8 percent) and calcareous grit in an 80 to 20 ratio. The soil matrix was contained in plastic pots with a volume of 1 quart and a surface area of 83.6 square centimeters (cm^2). When required to ensure good germination and healthy plants, a fungicide treatment and/or other chemical or physical treatment was applied. The plants were grown for 8-22 days in a greenhouse with an approximate 14 hr. photoperiod which was maintained at about 29° C. during the day and 26° C. during the night. Nutrients (Peters Excel® 15-5-15 5-Ca 2-Mg and iron chelate) were applied in the irrigation solution as needed and water was added on a regular basis. Supplemental lighting was provided with overhead metal halide 1000-Watt lamps as necessary. The plants were employed for testing when they reached the first through fourth true leaf stage.
(§2) Treatments consisted of the acid or esters of 4-amino-3-chloro-5-fluoro-6-(4-chloro-2-fluoro-3-methoxy-phenyl)pyridine-2-carboxylic acid (Compound A), each formulated as an SC (suspension concentrate), and various herbicidal components alone and in combination.
(§3) Other herbicidal components were applied on an acid equivalent (ae) or active ingredient (ai) basis and included acetyl coA carboxylase (ACCase)-inhibiting herbicides (cyclohexanedione and aryloxyphenoxypropionate chemical classes) cyhalofop-butyl formulated as Clincher® SF (285 gr ai/L EC), diclofop-methyl formulated as Hoelon® 3EC, fenoxaprop-p-ethyl+isoxadifen-ethyl formulated as RiceStar® HT (0.58 lb./gal EC), fenoxaprop-p-ethyl+mefenpyr diethyl formulated as Puma® IEC, metamifop formulated as Metamifop EC, haloxyfop-methyl formulated as Gallant Super®, fluazifop-p-butyl formulated as Fusilade® DX, quizalofop-p-ethyl formulated as Assure® II, profoxydim formulated as Aura® 20EC, clethodim applied as Intensity®, sethoxydim formulated as Poast®, and tralkoxydim formulated as Achieve®.
(§4) Treatment requirements were calculated based upon the rates being tested, the concentration of active ingredient or acid equivalent in the formulation, and a 12 mL application volume at a rate of 187 L/ha.
(§5) For treatments comprised of formulated compounds, measured amounts of compounds were placed individually in 25 mL glass vials and diluted in a volume of 1.25% (v/v) Agri-Dex® crop oil concentrated to obtain 12× stock solutions. […] Application solutions were prepared by adding an appropriate amount of each stock solution (e.g., 1 mL) and diluted to the appropriate final concentrations with the addition of 10 mL of an aqueous mixture of 1.25% (v/v) crop oil concentrate so that the final spray solutions contained 1.25+/−0.05% (v/v) crop oil concentrate.
(§6) All stock solutions and applications solutions were visually inspected for compound compatibility prior to application. Spray solutions were applied to the plant material with an overhead Mandel track sprayer equipped with a 8002E nozzles calibrated to deliver 187 L/ha over an application area of 0.503 m^2 at a spray height of 18 to 20 inches (46 to 50 cm) above average plant canopy height. Control plants were sprayed in the same manner with the solvent blank.
(§7) The treated plants and control plants were placed in a greenhouse as described above and watered by sub-irrigation to prevent wash-off of the test compounds. After approximately 3 weeks, the condition of the test plants as compared with that of the untreated plants was determined visually and scored on a scale of 0 to 100 percent where 0 corresponds to no injury or growth inhibition and 100 corresponds to complete kill. […]

[2] = test system: ECHCG; experiment: Example II in-water applied, greenhouse, transplanted paddy rice weeds; format: in vivo, Echinochloa crusgalli (L.) Beauv.; conditions: 135 gai/ha
Protocol: (§8) Applications were made by injecting with a pipetter appropriate amounts of the application solutions, individually and sequentially, into the aqueous layer of the paddy. Control plants were treated in the same manner with the solvent blank. Applications were made so that all treated plant material received the same concentrations of acetone and crop oil concentrate.
(§9) The treated plants and control plants were placed in a greenhouse as described above and water was added as needed to maintain a paddy flood. After approximately 3 weeks the condition of the test plants as compared with that of the untreated plants was determined visually and scored on a scale of 0 to 100 percent where 0 corresponds to no injury or growth inhibition and 100 corresponds to complete kill.
(§10) Colby's equation was used to determine the herbicidal effects expected from the mixtures (Colby, S. R. 1967. Calculation of the synergistic and antagonistic response of herbicide combinations. Weeds 15:20-22.).
(§11) The following equation was used to calculate the expected activity of mixtures containing two active ingredients, A and B: Expected=A+B−(A×B/100)

[3] = test system: CYPIR; experiment: Example I postemergence foliar-applied, greenhouse, direct seeded rice weeds; format: in vivo, Cyperus iria L.
Text: as §1, §2, §3, §4, §5, §6, §7

[4] = test system: CYPDI; experiment: as above; format: in vivo, Cyperus difformis L.
Text: as §1, §2, §3, §4, §5
All stock solutions and applications solutions were visually inspected for compound compatibility prior to application. […]
as §7

[5] = test system: SCPJU; experiment: Example II in-water applied, greenhouse, transplanted paddy rice weeds; format: in vivo, Schoenoplectus juncoides (Roxb.) Palla; conditions: in-water, 135 gai/ha
Protocol: (§12) Weed seeds or nutlets of the desired test plant species were planted in puddled soil (mud) prepared by mixing a shredded, non-sterilized mineral soil (50.5 percent silt, 25.5 percent clay, and 24 percent sand, with a pH of about 7.6 and an organic matter content of about 2.9 percent) and water at a 1:1 volumetric ratio. The prepared mud was dispensed in 365 mL aliquots into 16-ounce (oz.) non-perforated plastic pots with a surface area of 86.59 square centimeters (cm^2) leaving a headspace of 3 centimeters (cm) in each pot. Mud was allowed to dry overnight prior to planting or transplanting. Rice seeds were planted in Sun Gro MetroMix® 306 planting mixture, which typically has a pH of 6.0 to 6.8 and an organic matter content of about 30 percent, in plastic plug trays. Seedlings at the second or third leaf stage of growth were transplanted into 860 mL of mud contained in 32-oz. non-perforated plastic pots with a surface area of 86.59 cm^2 4 days prior to herbicide application. The paddy was created by filling the headspace of the pots with 2.5 to 3 cm of water. […] The plants were grown for 4-22 days in a greenhouse with an approximate 14 hr. photoperiod which was maintained at about 29° C. during the day and 26° C. during the night. Nutrients were added as Osmocote® (19:6:12, N:P:K+minor nutrients) at 2 g per 16-oz. pot and 4 g per 32-oz. pot. Water was added on a regular basis to maintain the paddy flood, and supplemental lighting was provided with overhead metal halide 1000-Watt lamps as necessary. The plants were employed for testing when they reached the first through fourth true leaf stage.
(§13) Treatments consisted of the acid or esters of 4-amino-3-chloro-5-fluoro-6-(4-chloro-2-fluoro-3-methoxy-phenyl)pyridine-2-carboxylic acid (compound A) each formulated as an SC (suspension concentrate) and various herbicidal components alone and in combination.
(§14) For formulated compounds, a measured amount was placed in an individual 100 or 200 mL glass vial and was dissolved in a volume of 1.25% (v/v) Agri-Dex® crop oil concentrate to obtain application solutions.
as §8, §9, §10, §11

[6] = test system: FIMMI; experiment: as above; format: in vivo, Fimbristylis miliacea (L.) Vahl
Protocol: as §12, §13, §14, §8, §9, §10, §11

[7] = test system: LEFCH; experiment: Example I postemergence foliar-applied, greenhouse, direct seeded rice weeds; format: in vivo, Leptochloa chinensis (L.) Nees; conditions: 112 gai/ha
Text: as §1, §2, §3, §4, §5, §6, §7

[8] = test system: SCPJU; experiment: as above; format: in vivo, Schoenoplectus juncoides (Roxb.) Palla
Text: as §1, §2, §3, §4, §5, §6, §7

[9] = test system: CYPES; experiment: as above; format: in vivo, Cyperus esculentus L.
Text: as §1, §2, §3, §4, §5, §6, §7

[10] = test system: BRAPP; experiment: as above; format: in vivo, Brachiaria platyphylla (Griseb.) Nash; conditions: 70 gai/ha
Text: as §1, §2, §3, §4, §5, §6, §7

[11] = test system: DIGSA; experiment: as above; format: in vivo, Digitaria sanguinalis (L.) Scop.; conditions: 70 gai/ha
Text: as §1
Treatments consisted of the acid or esters of 4-amino-3-chloro-5-fluoro-6-(4-chloro-2-fluoro-3-methoxy-phenyl)pyridine-2-carboxylic acid (Compound A), each formulated as an SC (suspension concentrate), and various herbicidal components alone and in combination. […]
as §4
For treatments comprised of formulated compounds, measured amounts of compounds were placed individually in 25 mL glass vials and diluted in a volume of 1.25% (v/v) Agri-Dex® crop oil concentrated to obtain 12× stock solutions. […]
as §7

CCC/C(=N\OCC)C1=C(O)CC(CC(C)SCC)CC1=O (centres unmarked) [Sethoxydim, 2-[1-(ethoxyimino)butyl]-5-[2-(ethylthio)propyl]-3-hydroxy-2-cyclohexen-1-one]
Visual Weed Control (%) - 22 DAA ECHCG Obs ([1]; 56 gai/ha): 30% | Visual Weed Control (%) - 22 DAA ECHCG Obs ([1]; 112 gai/ha): 90% | Visual Weed Control (%) - 21 DAA ECHCG Obs [2]: 60% | Visual Weed Control (%) - 22 DAA CYPIR Obs ([3]; 67.5 gai/ha): 0% | Visual Weed Control (%) - 22 DAA CYPIR Obs ([3]; 135 gai/ha): 0% | Visual Weed Control (%) - 22 DAA CYPIR Obs ([3]; 270 gai/ha): 0% | Visual Weed Control (%) - 22 DAA CYPDI Obs ([4]; 67.5 gai/ha): 0% | Visual Weed Control (%) - 22 DAA CYPDI Obs ([4]; 135 gai/ha): 0% | Visual Weed Control (%) - 22 DAA CYPDI Obs ([4]; 270 gai/ha): 0% | Visual Weed Control (%) - 21 DAA SCPJU Obs [5]: 0% | Visual Weed Control (%) - 21 DAA FIMMI Obs ([6]; 135 gai/ha): 50% | Visual Weed Control (%) - 21 DAA FIMMI Obs ([6]; 270 gai/ha): 30% | Visual Weed Control (%) - 22 DAA LEFCH Obs [7]: 70% | Visual Weed Control (%) - 22 DAA SCPJU Obs ([8]; 67.5 gai/ha): 0% | Visual Weed Control (%) - 22 DAA SCPJU Obs ([8]; 135 gai/ha): 0% | Visual Weed Control (%) - 22 DAA SCPJU Obs ([8]; 270 gai/ha): 0% | Visual Weed Control (%) - 22 DAA CYPES Obs ([9]; 67.5 gai/ha): 0% | Visual Weed Control (%) - 22 DAA CYPES Obs ([9]; 135 gai/ha): 0% | Visual Weed Control (%) - 22 DAA CYPES Obs ([9]; 270 gai/ha): 0%

CCSC(C)CC1CC(=O)C(/C(CC)=N/OC/C=C/Cl)=C(O)C1 (centres unmarked) [Clethodim, 2-[1-[[[(2E)-3-chloro-2-propen-1-yl]oxy]imino]propyl]-5-[2-(ethylthio)propyl]-3-hydroxy-2-cyclohexen-1-one, reference compound]
Visual Weed Control (%) - 20 DAA BRAPP Obs [10]: 10% | Visual Weed Control (%) - 20 DAA DIGSA Obs [11]: 50% | Visual Weed Control (%) - 20 DAA SCPJU Obs ([8]; 140 gai/ha): 0% | Visual Weed Control (%) - 20 DAA SCPJU Obs ([8]; 280 gai/ha): 0% | Visual Weed Control (%) - 20 DAA CYPES Obs ([9]; 70 gai/ha): 0% | Visual Weed Control (%) - 20 DAA CYPES Obs ([9]; 140 gai/ha): 0% | Visual Weed Control (%) - 20 DAA CYPES Obs ([9]; 280 gai/ha): 0%
